Measured values reported in the supplement of paper PMC10307832.

Columns and labels:
Test in all cases: relative viability (nuclei count vs DMSO), 5 days (fraction); higher = more cells survive
Bleomycin + Alpelisib = compound: CC1=C(N=C(N=C1N)[C@H](CC(=O)N)NC[C@@H](C(=O)N)N)C(=O)N[C@@H]([C@H](C2=CN=CN2)OC3C(C(C(C(O3)CO)O)O)OC4C(C(C(C(O4)CO)O)OC(=O)N)O)C(=O)N[C@H](C)[C@H]([C@H](C)C(=O)N[C@@H]([C@@H](C)O)C(=O)NCCC5=NC(=CS5)C6=NC(=CS6)C(=O)NCCC[S+](C)C)O [Bleomycin] + Cc1nc(NC(=O)N2CCC[C@H]2C(N)=O)sc1-c1ccnc(C(C)(C)C(F)(F)F)c1 [Alpelisib] (partner 2 µM); settings: main component drawn
How it was run: (§1)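 One day after seeding in 1536-well plates, lung cancer cell lines were dosed by pin tool. Dosing was either single-drug or a fixed anchor-drug dose plus five library-drug doses (not always all listed) in √10 steps. After 5 days, nuclei were stained in one fix-and-stain step and counted on 4× images, and relative viability is the nuclei count of treated wells over that of vehicle wells, given as the median of duplicate plates.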

Bleomycin + Dasatinib = compound: CC1=C(N=C(N=C1N)[C@H](CC(=O)N)NC[C@@H](C(=O)N)N)C(=O)N[C@@H]([C@H](C2=CN=CN2)OC3C(C(C(C(O3)CO)O)O)OC4C(C(C(C(O4)CO)O)OC(=O)N)O)C(=O)N[C@H](C)[C@H]([C@H](C)C(=O)N[C@@H]([C@@H](C)O)C(=O)NCCC5=NC(=CS5)C6=NC(=CS6)C(=O)NCCC[S+](C)C)O [Bleomycin] + Cc1nc(Nc2ncc(C(=O)Nc3c(C)cccc3Cl)s2)cc(N2CCN(CCO)CC2)n1 [Dasatinib] (partner 0.075 µM); settings: main component drawn
How it was run: as §1

Etoposide + Foretinib = compound: COc1cc([C@@H]2c3cc4c(cc3[C@@H](O[C@@H]3O[C@@H]5CO[C@@H](C)O[C@H]5[C@H](O)[C@H]3O)[C@H]3COC(=O)[C@H]23)OCO4)cc(OC)c1O [Etoposide] + COc1cc2c(Oc3ccc(NC(=O)C4(C(=O)Nc5ccc(F)cc5)CC4)cc3F)ccnc2cc1OCCCN1CCOCC1 [Foretinib] (partner 0.25 µM)
How it was run: as §1

Etoposide + Phenformin = compound: COc1cc([C@@H]2c3cc4c(cc3[C@@H](O[C@@H]3O[C@@H]5CO[C@@H](C)O[C@H]5[C@H](O)[C@H]3O)[C@H]3COC(=O)[C@H]23)OCO4)cc(OC)c1O [Etoposide] + N=C(N)NC(=N)NCCc1ccccc1 [Phenformin] (partner 250 µM)
How it was run: as §1

201T
relative viability (Bleomycin + Alpelisib; first compound 0.01 µM): 0.956 | relative viability (Bleomycin + Alpelisib; first compound 0.03162 µM): 0.949 | relative viability (Bleomycin + Alpelisib; first compound 0.1 µM): 0.96 | relative viability (Bleomycin + Alpelisib; first compound 0.3162 µM): 0.862 | relative viability (Bleomycin + Alpelisib; first compound 1 µM): 0.753 | relative viability (Bleomycin + Dasatinib; first compound 0.01 µM): 0.527 | relative viability (Bleomycin + Dasatinib; first compound 0.03162 µM): 0.529 | relative viability (Bleomycin + Dasatinib; first compound 0.1 µM): 0.546 | relative viability (Bleomycin + Dasatinib; first compound 0.3162 µM): 0.444 | relative viability (Bleomycin + Dasatinib; first compound 1 µM): 0.463 | relative viability (Etoposide + Foretinib; first compound 0.01 µM): 0.981 | relative viability (Etoposide + Foretinib; first compound 0.03162 µM): 0.931 | relative viability (Etoposide + Foretinib; first compound 0.1 µM): 1.1 | relative viability (Etoposide + Foretinib; first compound 0.3162 µM): 0.778 | relative viability (Etoposide + Foretinib; first compound 1 µM): 0.425 | relative viability (Etoposide + Phenformin; first compound 0.01 µM): 0.45 | relative viability (Etoposide + Phenformin; first compound 0.03162 µM): 0.51 | relative viability (Etoposide + Phenformin; first compound 0.1 µM): 0.381 | relative viability (Etoposide + Phenformin; first compound 0.3162 µM): 0.368 | relative viability (Etoposide + Phenformin; first compound 1 µM): 0.322

A549
relative viability (Bleomycin + Alpelisib; first compound 0.01 µM): 0.593 | relative viability (Bleomycin + Alpelisib; first compound 0.03162 µM): 0.44 | relative viability (Bleomycin + Alpelisib; first compound 0.1 µM): 0.314 | relative viability (Bleomycin + Alpelisib; first compound 0.3162 µM): 0.0966 | relative viability (Bleomycin + Alpelisib; first compound 1 µM): 0.0714 | relative viability (Etoposide + Foretinib; first compound 0.01 µM): 0.773 | relative viability (Etoposide + Foretinib; first compound 0.03162 µM): 1.01 | relative viability (Etoposide + Foretinib; first compound 0.1 µM): 0.753 | relative viability (Etoposide + Foretinib; first compound 0.3162 µM): 0.236 | relative viability (Etoposide + Foretinib; first compound 1 µM): 0.068 | relative viability (Etoposide + Phenformin; first compound 0.01 µM): 0.2 | relative viability (Etoposide + Phenformin; first compound 0.03162 µM): 0.121 | relative viability (Etoposide + Phenformin; first compound 0.1 µM): 0.116 | relative viability (Etoposide + Phenformin; first compound 0.3162 µM): 0.0719 | relative viability (Etoposide + Phenformin; first compound 1 µM): 0.0368

A-427
relative viability (Bleomycin + Alpelisib; first compound 0.01 µM): 0.983 | relative viability (Bleomycin + Alpelisib; first compound 0.03162 µM): 1.05 | relative viability (Bleomycin + Alpelisib; first compound 0.1 µM): 1.05 | relative viability (Bleomycin + Alpelisib; first compound 0.3162 µM): 0.48 | relative viability (Bleomycin + Alpelisib; first compound 1 µM): 0.203 | relative viability (Bleomycin + Dasatinib; first compound 0.01 µM): 0.53 | relative viability (Bleomycin + Dasatinib; first compound 0.03162 µM): 0.56 | relative viability (Bleomycin + Dasatinib; first compound 0.1 µM): 0.496 | relative viability (Bleomycin + Dasatinib; first compound 0.3162 µM): 0.137 | relative viability (Bleomycin + Dasatinib; first compound 1 µM): 0.144 | relative viability (Etoposide + Foretinib; first compound 0.01 µM): 0.947 | relative viability (Etoposide + Foretinib; first compound 0.03162 µM): 1.08 | relative viability (Etoposide + Foretinib; first compound 0.1 µM): 0.853 | relative viability (Etoposide + Foretinib; first compound 0.3162 µM): 0.424 | relative viability (Etoposide + Foretinib; first compound 1 µM): 0.284 | relative viability (Etoposide + Phenformin; first compound 0.01 µM): 0.362 | relative viability (Etoposide + Phenformin; first compound 0.03162 µM): 0.317 | relative viability (Etoposide + Phenformin; first compound 0.1 µM): 0.258 | relative viability (Etoposide + Phenformin; first compound 0.3162 µM): 0.213 | relative viability (Etoposide + Phenformin; first compound 1 µM): 0.143

ABC-1
relative viability (Bleomycin + Alpelisib; first compound 0.01 µM): 0.883 | relative viability (Bleomycin + Alpelisib; first compound 0.03162 µM): 1.03 | relative viability (Bleomycin + Alpelisib; first compound 0.1 µM): 0.615 | relative viability (Bleomycin + Alpelisib; first compound 0.3162 µM): 0.425 | relative viability (Bleomycin + Alpelisib; first compound 1 µM): 0.298 | relative viability (Bleomycin + Dasatinib; first compound 0.01 µM): 0.516 | relative viability (Bleomycin + Dasatinib; first compound 0.03162 µM): 0.53 | relative viability (Bleomycin + Dasatinib; first compound 0.1 µM): 0.61 | relative viability (Bleomycin + Dasatinib; first compound 0.3162 µM): 0.31 | relative viability (Bleomycin + Dasatinib; first compound 1 µM): 0.285 | relative viability (Etoposide + Foretinib; first compound 0.01 µM): 1.06 | relative viability (Etoposide + Foretinib; first compound 0.03162 µM): 0.951 | relative viability (Etoposide + Foretinib; first compound 0.1 µM): 0.65 | relative viability (Etoposide + Foretinib; first compound 0.3162 µM): 0.5 | relative viability (Etoposide + Foretinib; first compound 1 µM): 0.271 | relative viability (Etoposide + Phenformin; first compound 0.01 µM): 0.239 | relative viability (Etoposide + Phenformin; first compound 0.03162 µM): 0.244 | relative viability (Etoposide + Phenformin; first compound 0.1 µM): 0.241 | relative viability (Etoposide + Phenformin; first compound 0.3162 µM): 0.201 | relative viability (Etoposide + Phenformin; first compound 1 µM): 0.171

BEN
relative viability (Bleomycin + Alpelisib; first compound 0.01 µM): 1.01 | relative viability (Bleomycin + Alpelisib; first compound 0.03162 µM): 0.921 | relative viability (Bleomycin + Alpelisib; first compound 0.1 µM): 0.937 | relative viability (Bleomycin + Alpelisib; first compound 0.3162 µM): 0.762 | relative viability (Bleomycin + Alpelisib; first compound 1 µM): 0.738 | relative viability (Bleomycin + Dasatinib; first compound 0.01 µM): 0.327 | relative viability (Bleomycin + Dasatinib; first compound 0.03162 µM): 0.342 | relative viability (Bleomycin + Dasatinib; first compound 0.1 µM): 0.341 | relative viability (Bleomycin + Dasatinib; first compound 0.3162 µM): 0.273 | relative viability (Bleomycin + Dasatinib; first compound 1 µM): 0.249 | relative viability (Etoposide + Foretinib; first compound 0.01 µM): 0.564 | relative viability (Etoposide + Foretinib; first compound 0.03162 µM): 0.884 | relative viability (Etoposide + Foretinib; first compound 0.3162 µM): 0.657 | relative viability (Etoposide + Foretinib; first compound 1 µM): 0.725 | relative viability (Etoposide + Phenformin; first compound 0.01 µM): 0.249 | relative viability (Etoposide + Phenformin; first compound 0.03162 µM): 0.266 | relative viability (Etoposide + Phenformin; first compound 0.3162 µM): 0.264 | relative viability (Etoposide + Phenformin; first compound 1 µM): 0.289

CAL-12T
relative viability (Bleomycin + Alpelisib; first compound 0.01 µM): 0.666 | relative viability (Bleomycin + Alpelisib; first compound 0.03162 µM): 0.883 | relative viability (Bleomycin + Alpelisib; first compound 0.1 µM): 0.433 | relative viability (Bleomycin + Alpelisib; first compound 0.3162 µM): 0.235 | relative viability (Bleomycin + Alpelisib; first compound 1 µM): 0.244 | relative viability (Bleomycin + Dasatinib; first compound 0.01 µM): 0.246 | relative viability (Bleomycin + Dasatinib; first compound 0.03162 µM): 0.259 | relative viability (Bleomycin + Dasatinib; first compound 0.1 µM): 0.164 | relative viability (Bleomycin + Dasatinib; first compound 0.3162 µM): 0.0878 | relative viability (Bleomycin + Dasatinib; first compound 1 µM): 0.12 | relative viability (Etoposide + Foretinib; first compound 0.01 µM): 1.19 | relative viability (Etoposide + Foretinib; first compound 0.03162 µM): 1.16 | relative viability (Etoposide + Foretinib; first compound 0.1 µM): 1.13 | relative viability (Etoposide + Foretinib; first compound 0.3162 µM): 0.765 | relative viability (Etoposide + Foretinib; first compound 1 µM): 0.401 | relative viability (Etoposide + Phenformin; first compound 0.01 µM): 0.594 | relative viability (Etoposide + Phenformin; first compound 0.03162 µM): 0.612 | relative viability (Etoposide + Phenformin; first compound 0.1 µM): 0.586 | relative viability (Etoposide + Phenformin; first compound 0.3162 µM): 0.409 | relative viability (Etoposide + Phenformin; first compound 1 µM): 0.221

COR-L23
relative viability (Bleomycin + Alpelisib; first compound 0.01 µM): 0.516 | relative viability (Bleomycin + Alpelisib; first compound 0.03162 µM): 0.495 | relative viability (Bleomycin + Alpelisib; first compound 0.1 µM): 0.262 | relative viability (Bleomycin + Alpelisib; first compound 0.3162 µM): 0.0744 | relative viability (Bleomycin + Alpelisib; first compound 1 µM): 0.0882 | relative viability (Bleomycin + Dasatinib; first compound 0.01 µM): 0.394 | relative viability (Bleomycin + Dasatinib; first compound 0.03162 µM): 0.276 | relative viability (Bleomycin + Dasatinib; first compound 0.1 µM): 0.215 | relative viability (Bleomycin + Dasatinib; first compound 0.3162 µM): 0.0981 | relative viability (Bleomycin + Dasatinib; first compound 1 µM): 0.0987 | relative viability (Etoposide + Foretinib; first compound 0.01 µM): 0.954 | relative viability (Etoposide + Foretinib; first compound 0.03162 µM): 1.14 | relative viability (Etoposide + Foretinib; first compound 0.1 µM): 1 | relative viability (Etoposide + Foretinib; first compound 0.3162 µM): 0.744 | relative viability (Etoposide + Foretinib; first compound 1 µM): 0.33 | relative viability (Etoposide + Phenformin; first compound 0.01 µM): 0.394 | relative viability (Etoposide + Phenformin; first compound 0.03162 µM): 0.479 | relative viability (Etoposide + Phenformin; first compound 0.1 µM): 0.434 | relative viability (Etoposide + Phenformin; first compound 0.3162 µM): 0.287 | relative viability (Etoposide + Phenformin; first compound 1 µM): 0.155

COR-L 105
relative viability (Bleomycin + Alpelisib; first compound 0.01 µM): 0.95 | relative viability (Bleomycin + Alpelisib; first compound 0.03162 µM): 0.949 | relative viability (Bleomycin + Alpelisib; first compound 0.1 µM): 0.794 | relative viability (Bleomycin + Alpelisib; first compound 0.3162 µM): 0.413 | relative viability (Bleomycin + Alpelisib; first compound 1 µM): 0.317 | relative viability (Bleomycin + Dasatinib; first compound 0.01 µM): 0.325 | relative viability (Bleomycin + Dasatinib; first compound 0.03162 µM): 0.35 | relative viability (Bleomycin + Dasatinib; first compound 0.1 µM): 0.307 | relative viability (Bleomycin + Dasatinib; first compound 0.3162 µM): 0.238 | relative viability (Bleomycin + Dasatinib; first compound 1 µM): 0.215 | relative viability (Etoposide + Foretinib; first compound 0.01 µM): 0.926 | relative viability (Etoposide + Foretinib; first compound 0.03162 µM): 1.3 | relative viability (Etoposide + Foretinib; first compound 0.1 µM): 1.02 | relative viability (Etoposide + Foretinib; first compound 0.3162 µM): 1.02 | relative viability (Etoposide + Foretinib; first compound 1 µM): 0.645 | relative viability (Etoposide + Phenformin; first compound 0.01 µM): 0.664 | relative viability (Etoposide + Phenformin; first compound 0.03162 µM): 0.53 | relative viability (Etoposide + Phenformin; first compound 0.1 µM): 0.405 | relative viability (Etoposide + Phenformin; first compound 0.3162 µM): 0.444 | relative viability (Etoposide + Phenformin; first compound 1 µM): 0.39
